Numbers after ± are expanded uncertainties.
How the values were obtained:
[1] = xn = mol fraction of the nth substance listed; settings: 100 kPa, Liquid; for viscosity: Falling or rolling sphere viscometry; for mass density: Vibrating tube method
[2] = 100 kPa, Liquid; for viscosity: Falling or rolling sphere viscometry; for mass density: Vibrating tube method

CCCCCCCCCCCC [dodecane] + OCC1CC1
[1], x2 = 0
Settings | mass density [kg/m3] | viscosity [mPa·s]
293.15 K | 748.83 ± 1 | 1.481 ± 0.031
298.15 K | 745.23 ± 1 | 1.355 ± 0.029
303.15 K | 741.6 ± 1 | 1.244 ± 0.026
308.15 K | 737.97 ± 1 | 1.151 ± 0.024
313.15 K | 734.33 ± 1 | 1.066 ± 0.023
318.15 K | 730.68 ± 1 | 0.992 ± 0.021
323.15 K | 727.01 ± 1 | 0.926 ± 0.02
328.15 K | 723.35 ± 1 | 0.867 ± 0.018
333.15 K | 719.67 ± 1 | 0.814 ± 0.017
338.15 K | 715.98 ± 1 | 0.765 ± 0.016
343.15 K | 712.28 ± 1 | 0.724 ± 0.015

CCCCC1CCCCC1 [butylcyclohexane]
[2]
Settings | mass density [kg/m3] | viscosity [mPa·s]
293.15 K | 799.34 ± 1 | 1.305 ± 0.028
298.15 K | 795.59 ± 1 | 1.202 ± 0.026
303.15 K | 791.84 ± 1 | 1.112 ± 0.024
308.15 K | 788.07 ± 1 | 1.033 ± 0.022
313.15 K | 784.3 ± 1 | 0.963 ± 0.021
318.15 K | 780.52 ± 1 | 0.901 ± 0.019
323.15 K | 776.74 ± 1 | 0.844 ± 0.018
328.15 K | 772.93 ± 1 | 0.794 ± 0.017
333.15 K | 769.13 ± 1 | 0.749 ± 0.016
338.15 K | 765.3 ± 1 | 0.708 ± 0.015
343.15 K | 761.47 ± 1 | 0.67 ± 0.014

CCCCC1CCCCC1 [butylcyclohexane] + OCC1CC1
[1], x2 = 0
Settings | mass density [kg/m3] | viscosity [mPa·s]
293.15 K | 799.34 ± 1 | 1.305 ± 0.028
298.15 K | 795.59 ± 1 | 1.202 ± 0.026
303.15 K | 791.84 ± 1 | 1.112 ± 0.024
308.15 K | 788.07 ± 1 | 1.033 ± 0.022
313.15 K | 784.3 ± 1 | 0.963 ± 0.021
318.15 K | 780.52 ± 1 | 0.901 ± 0.019
323.15 K | 776.74 ± 1 | 0.844 ± 0.018
328.15 K | 772.93 ± 1 | 0.794 ± 0.017
333.15 K | 769.13 ± 1 | 0.749 ± 0.016
338.15 K | 765.3 ± 1 | 0.708 ± 0.015
343.15 K | 761.47 ± 1 | 0.67 ± 0.014

CCCCCCCCCCCC [dodecane] + CCCCC1CCCCC1
[1], x1 = 1
Settings | mass density [kg/m3] | viscosity [mPa·s]
293.15 K | 748.83 ± 1 | 1.481 ± 0.031
298.15 K | 745.23 ± 1 | 1.355 ± 0.029
303.15 K | 741.6 ± 1 | 1.244 ± 0.026
308.15 K | 737.97 ± 1 | 1.151 ± 0.024
313.15 K | 734.33 ± 1 | 1.066 ± 0.023
318.15 K | 730.68 ± 1 | 0.992 ± 0.021
323.15 K | 727.01 ± 1 | 0.926 ± 0.02
328.15 K | 723.35 ± 1 | 0.867 ± 0.018
333.15 K | 719.67 ± 1 | 0.814 ± 0.017
338.15 K | 715.98 ± 1 | 0.765 ± 0.016
343.15 K | 712.28 ± 1 | 0.724 ± 0.015

OCC1CC1 [cyclopropylmethanol]
[2]
Settings | mass density [kg/m3] | viscosity [mPa·s]
293.15 K | 912.99 ± 1 | 4.029 ± 0.086
298.15 K | 908.94 ± 1 | 3.485 ± 0.075
303.15 K | 904.85 ± 1 | 3.037 ± 0.065
308.15 K | 900.74 ± 1 | 2.661 ± 0.057
313.15 K | 896.58 ± 1 | 2.344 ± 0.05
318.15 K | 892.38 ± 1 | 2.074 ± 0.044
323.15 K | 888.13 ± 1 | 1.843 ± 0.04
328.15 K | 883.84 ± 1 | 1.646 ± 0.035
333.15 K | 879.49 ± 1 | 1.476 ± 0.032
338.15 K | 875.07 ± 1 | 1.328 ± 0.028
343.15 K | 870.62 ± 1 | 1.201 ± 0.026

CCCCCCCCCCCC [dodecane]
[2]
Settings | mass density [kg/m3] | viscosity [mPa·s]
293.15 K | 748.83 ± 1 | 1.481 ± 0.031
298.15 K | 745.23 ± 1 | 1.355 ± 0.029
303.15 K | 741.6 ± 1 | 1.244 ± 0.026
308.15 K | 737.97 ± 1 | 1.151 ± 0.024
313.15 K | 734.33 ± 1 | 1.066 ± 0.023
318.15 K | 730.68 ± 1 | 0.992 ± 0.021
323.15 K | 727.01 ± 1 | 0.926 ± 0.02
328.15 K | 723.35 ± 1 | 0.867 ± 0.018
333.15 K | 719.67 ± 1 | 0.814 ± 0.017
338.15 K | 715.98 ± 1 | 0.765 ± 0.016
343.15 K | 712.28 ± 1 | 0.724 ± 0.015

Reference: the NIST ThermoML archive (doi:10.1021/acs.jced.7b00201)
